SMILES strings stand for the structures.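 96-well plates; 48 h exposure; 5 concentrations. Endpoints by linear interpolation between flanking doses. Not reached: highest tested concentration assigned. Here, GI50 denotes the concentration required for 50% inhibition of growth. The concentration for full growth arrest is given as TGI.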 Some results are limits rather than exact numbers.

Test systems include HOP-92 NSCLC; IGROV1 ovarian; UACC-62 melanoma; OVCAR-3 ovarian; M14 melanoma; RPMI-8226 leukemia; SF-295 CNS; SF-539 CNS; CAKI-1 renal; SN12C renal; SK-OV-3 ovarian; HT29 colon; TK-10 renal; UO-31 renal; SW-620 colon; OVCAR-5 ovarian; CCRF-CEM leukemia.
Holding throughout (assay): NCI tumour cell line growth inhibition, 48 h

Take `CCCCOP(C)(=O)C(NC(=O)OCC)(C(F)(F)F)C(F)(F)F` (centres undefined): the TGI with HOP-92 NSCLC, in the test on IGROV1 ovarian, in the test with UACC-62 melanoma, in the test with OVCAR-3 ovarian, in the test with M14 melanoma and in the test with RPMI-8226 leukemia was over 100 µM each time. The TGI in the test with SF-295 CNS, in the test with SF-539 CNS, in the test with CAKI-1 renal, in the test on SN12C renal, in the test on SK-OV-3 ovarian and in the test with HT29 colon was over 100 µM each time. For the same compound, the TGI in the test with TK-10 renal, in the test on UO-31 renal, with SW-620 colon, in the test with OVCAR-5 ovarian and in the test on CCRF-CEM leukemia was over 100 µM each time.

For `CC(C)c1ccccc1SCc1cc(=O)cc(CSc2ccccc2C(C)C)o1`, the TGI is 36.7 µM in the test with HOP-92 NSCLC; 33.1 µM with IGROV1 ovarian; 36.2 µM in the test on UACC-62 melanoma; 39.2 µM in the test on OVCAR-3 ovarian; 49.5 µM with M14 melanoma; over 100 µM in the test with RPMI-8226 leukemia. The TGI is 67.5 µM with SF-295 CNS; 49.4 µM in the test with CAKI-1 renal; 48 µM with SK-OV-3 ovarian; 41.2 µM in the test with HT29 colon; 38.7 µM with TK-10 renal; over 100 µM in the test on UO-31 renal. Further, the TGI is 81.2 µM in the test on SW-620 colon, 34.7 µM in the test on OVCAR-5 ovarian and 95.6 µM in the test on CCRF-CEM leukemia.

With `C=C=CC(NC(=O)c1ccccc1)(C(=O)O)C(F)(F)F` (centres undefined), the TGI in the test with HOP-92 NSCLC, in the test on IGROV1 ovarian, in the test with M14 melanoma, in the test on RPMI-8226 leukemia, in the test on SF-295 CNS and with SF-539 CNS was over 100 µM in each case. The TGI in the test on SN12C renal, in the test on HT29 colon, in the test with TK-10 renal, in the test with SW-620 colon, in the test on OVCAR-5 ovarian and with CCRF-CEM leukemia was over 100 µM in each case.

Regarding `Cc1cccc(N2C(=O)C3c4[nH]c5ccc(C)cc5c4C4CCC(C(C)(C)C)CC4C3C2=O)c1` (centres undefined), the TGI was 57.6 µM with HOP-92 NSCLC; over 100 µM with IGROV1 ovarian; over 100 µM in the test with UACC-62 melanoma; 28.9 µM in the test with OVCAR-3 ovarian; over 100 µM in the test with M14 melanoma; 41.1 µM in the test with RPMI-8226 leukemia. In addition, the TGI was 47.5 µM in the test on SF-295 CNS; over 100 µM with CAKI-1 renal; over 100 µM with HT29 colon; 59.8 µM in the test with TK-10 renal; over 100 µM in the test on UO-31 renal; 59.6 µM in the test with SW-620 colon. In addition, the TGI is over 100 µM with OVCAR-5 ovarian and 68 µM in the test with CCRF-CEM leukemia.

For the compound `CC12CCC(CC1)C(C)(C)O2`, the TGI in the test with HOP-92 NSCLC was 95.2 µM; in the test on IGROV1 ovarian it was 86.3 µM; with UACC-62 melanoma, 69.6 µM; with OVCAR-3 ovarian it was 84.8 µM; with RPMI-8226 leukemia it was 173 µM; in the test with SF-295 CNS it was 116 µM. Besides, the TGI with SF-539 CNS is 90.1 µM; with CAKI-1 renal, over 61.2 µM; with SN12C renal, 71.7 µM; in the test with SK-OV-3 ovarian, 223 µM; with HT29 colon it was 128 µM; in the test with UO-31 renal, 78.3 µM. The results for the TGI in the test on SW-620 colon, in the test with OVCAR-5 ovarian and in the test on CCRF-CEM leukemia were 89.7 µM, 116 µM and 201 µM, respectively. Also, the GI50 with CAKI-1 renal is 15.7 µM; in the test with SW-620 colon it was 9.09 µM; in the test on CCRF-CEM leukemia, 35.8 µM.

For the compound `CSc1nc(N)c2c(-c3ccccc3)c3c(nc2n1)CCCC3`, the TGI in the test on IGROV1 ovarian, with UACC-62 melanoma, with OVCAR-3 ovarian, in the test on M14 melanoma, with RPMI-8226 leukemia and in the test on SF-295 CNS was over 100 µM each time. Further, the TGI in the test on SF-539 CNS, with CAKI-1 renal, in the test with SN12C renal, in the test on SK-OV-3 ovarian, with HT29 colon and with TK-10 renal was over 100 µM throughout. For the same compound, the TGI in the test on UO-31 renal, in the test on SW-620 colon, with OVCAR-5 ovarian and with CCRF-CEM leukemia was over 100 µM throughout.

As to `C=C1C(=O)OC2CC(C)C3C4OC4C(O)C3(C)C(O)C12` (centres undefined), the TGI stood at 61.9 µM in the test with HOP-92 NSCLC; 52.1 µM in the test with IGROV1 ovarian; 43.8 µM in the test with UACC-62 melanoma; 69.3 µM with OVCAR-3 ovarian; 51.1 µM in the test on RPMI-8226 leukemia; 98 µM in the test with SF-295 CNS. Further, the TGI was 45.6 µM in the test on SF-539 CNS; 67.9 µM in the test with CAKI-1 renal; 72 µM with SN12C renal; 98.8 µM with SK-OV-3 ovarian; 83.8 µM in the test with HT29 colon; 149 µM in the test with UO-31 renal. Besides, the TGI with SW-620 colon was found to be 54.6 µM; in the test with OVCAR-5 ovarian it was 108 µM; with CCRF-CEM leukemia it was 56 µM.

Turning to `COc1ccc(-c2c(-c3ccccc3)c(C)nc3nc(SC)nc(SC)c23)cc1OC`, the TGI with HOP-92 NSCLC was 48.2 µM; in the test on IGROV1 ovarian, over 100 µM; in the test on UACC-62 melanoma, 39.7 µM; with OVCAR-3 ovarian, over 100 µM; in the test on M14 melanoma it was over 100 µM; in the test on RPMI-8226 leukemia, 26.1 µM. Moreover, the TGI with SF-295 CNS is 31.5 µM; in the test with SF-539 CNS it was 23 µM; in the test on CAKI-1 renal, over 100 µM; in the test on SN12C renal, over 100 µM; in the test with SK-OV-3 ovarian, over 100 µM; in the test with HT29 colon, over 100 µM. Further, the TGI was over 100 µM with TK-10 renal; over 100 µM with UO-31 renal; over 100 µM in the test on SW-620 colon; over 100 µM in the test on OVCAR-5 ovarian; 23.5 µM in the test on CCRF-CEM leukemia.

The values above are taken from PubChem BioAssay (NCI).
